For 17 compounds, Activity and Ki results are on record in ChEMBL document CHEMBL1156289, “Potent and selective inhibition of human cytochrome P450 3A4 by seco-pancratistatin structural analogs” (Bioorg Med Chem Lett, 2010).

Activity calls are given as the source filed them. The rule behind the calls is not given here.

One may read the Ki as a dissociation constant, usually derived from enzyme kinetics or from competition with a known ligand.

The subject of one series is MCF7. The series can be described thus: Cytotoxicity against human MCF7 cells at 10 uM. The series is classed as functional, cell-based.
In series [1] the target is T1, Cytochrome P450 3A4 (Homo sapiens, UniProt P08684). The series can be described thus: Inhibition of human recombinant CYP3A4 assessed as biotransformation of […] at 10 uM measured every minute for 15 mins by fluorescence intensity assay. The series is classed as ADME.
Series [2] concerns the target T1, Cytochrome P450 3A4. The series can be described thus: Inhibition of human recombinant CYP3A4 assessed as biotransformation of […] measured every minute for 15 mins by fluorescence intensity assay. It counts as ADME.

T1 sequence (P08684 whole entry): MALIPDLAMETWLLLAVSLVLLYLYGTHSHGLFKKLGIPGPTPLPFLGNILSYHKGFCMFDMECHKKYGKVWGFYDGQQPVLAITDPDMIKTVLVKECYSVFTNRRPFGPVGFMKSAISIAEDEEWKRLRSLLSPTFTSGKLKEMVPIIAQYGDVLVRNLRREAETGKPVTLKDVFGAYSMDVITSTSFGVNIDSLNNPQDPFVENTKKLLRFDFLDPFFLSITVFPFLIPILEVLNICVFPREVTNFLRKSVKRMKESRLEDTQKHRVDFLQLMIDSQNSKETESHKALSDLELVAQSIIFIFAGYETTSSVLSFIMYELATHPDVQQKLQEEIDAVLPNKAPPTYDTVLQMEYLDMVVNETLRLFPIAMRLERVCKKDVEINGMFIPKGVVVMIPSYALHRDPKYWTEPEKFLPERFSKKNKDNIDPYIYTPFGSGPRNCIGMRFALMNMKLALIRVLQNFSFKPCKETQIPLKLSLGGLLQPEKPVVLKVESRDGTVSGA

Turning to `COCO[C@@H]([C@@H]1OC(C)(C)O[C@H]1COC(C)=O)[C@@H](CNC(=O)c1ccccc1)c1ccc2c(c1)OCO2`, the outcome in the series with MCF7 was inactive.

With `CC(C)OC(=O)[C@H](c1ccc2c(c1)OCO2)[C@H](O)[C@@H]1OC(C)(C)O[C@H]1CO[Si](C)(C)C(C)(C)C`, on Cytochrome P450 3A4 [1], the inhibition constant (Ki) entry is reported as “Not Active”.

For `COCO[C@H]([C@@H]1OC(C)(C)O[C@H]1CO[Si](C)(C)C(C)(C)C)[C@H](CO)c1ccc2c(c1)OCO2`, the inhibition constant (Ki) result on Cytochrome P450 3A4 [1] is “Not Active”. Consider `COCO[C@@H]([C@@H]1OC(C)(C)O[C@H]1CO[Si](c1ccccc1)(c1ccccc1)C(C)(C)C)[C@@H](CNC(=O)c1ccccc1)c1ccc2c(c1)OCO2`, for which the outcome in the series on MCF7 was inactive. The same measure, in the same setting: the result for `COCO[C@@H]([C@@H]1OC(C)(C)O[C@H]1CO[Si](C)(C)C(C)(C)C)[C@@H](CNC(=O)OC(C)(C)C)c1ccc2c(c1)OCO2` reads “inactive”; that for `CC1(C)O[C@@H]([C@H](O)[C@@H](CNC(=O)c2ccccc2)c2ccc3c(c2)OCO3)[C@H](CO[Si](C)(C)C(C)(C)C)O1`, “inactive”. `CC1(C)O[C@@H]([C@H](O)[C@@H](CNC(=O)c2ccccc2)c2ccc3c(c2)OCO3)[C@H](CO)O1`: the result with MCF7 was inactive. As for `COCO[C@@H]([C@@H]1OC(C)(C)O[C@H]1COS(=O)(=O)c1ccc(C)cc1)[C@@H](CNC(=O)c1ccccc1)c1ccc2c(c1)OCO2`, in the series on MCF7, the result was inactive.

Regarding `COCO[C@@H]([C@@H]1OC(C)(C)O[C@H]1CO)[C@@H](CNC(=O)c1ccccc1)c1ccc2c(c1)OCO2`, the outcome with MCF7 was inactive. For the compound `O=C(NC[C@H](c1ccc2c(c1)OCO2)[C@H](O)[C@H](O)[C@@H](O)CO)c1ccccc1`, the result with MCF7 was inactive. Take `COCO[C@H]([C@@H]1OC(C)(C)O[C@H]1CO[Si](C)(C)C(C)(C)C)[C@H](CN=[N+]=[N-])c1ccc2c(c1)OCO2`: the result with MCF7 was inactive. Moreover, the inhibition constant (Ki) entry at Cytochrome P450 3A4 [1] is given as “Not Active”. Consider `O=C(NC[C@@H](c1ccc2c(c1)OCO2)[C@@H](O)[C@H](O)[C@@H](O)CO)c1ccccc1`, for which the outcome in the series on MCF7 was inactive. For `COCO[C@H]([C@@H]1OC(C)(C)O[C@H]1COS(=O)(=O)c1ccc(C)cc1)[C@H](CNC(=O)c1ccccc1)c1ccc2c(c1)OCO2`, the inhibition constant (Ki) on Cytochrome P450 3A4 [2] was found to be 70 nM. For the same compound, in the series with MCF7, the outcome was inactive.

As for `COCO[C@H]([C@@H]1OC(C)(C)O[C@H]1CO)[C@H](CNC(=O)c1ccccc1)c1ccc2c(c1)OCO2`, the Ki on Cytochrome P450 3A4 [2] was found to be 1780 nM. Further, the outcome in the series with MCF7 was inactive. For the compound `COCO[C@@H]([C@@H]1OC(C)(C)O[C@H]1CO[Si](C)(C)C(C)(C)C)[C@@H](CNC(=O)c1ccccc1)c1ccc2c(c1)OCO2`, in the series on MCF7, the result was inactive. Take `COCO[C@H]([C@@H]1OC(C)(C)O[C@H]1CO[Si](C)(C)C(C)(C)C)[C@H](CNC(=O)OC(C)(C)C)c1ccc2c(c1)OCO2`: the inhibitory constant (Ki) on Cytochrome P450 3A4 [2] was determined as 240 nM. Also, the result with MCF7 was inactive.

`COCO[C@H]([C@@H]1OC(C)(C)O[C@H]1CO[Si](C)(C)C(C)(C)C)[C@H](CNC(=O)c1ccccc1)c1ccc2c(c1)OCO2`: the Ki at Cytochrome P450 3A4 [2] came out at 30 nM. Further, in the series with MCF7, the outcome was inactive.
